These results are taken from patent publication US7943628B2, “Pyrimidine derivatives” (Pfizer Limited, priority 2005, dated 2011).

The target in this assay is T1, histamine H4 receptor (Homo sapiens, UniProt Q9H3N8).
T1 construct: expressed in transfected cells; host or cells: CHO cells
Nature of the assay: H4 binding, method 1 ([3H]-histamine filtration binding on CHO cell membranes). To be noted: for Ki: H4 binding, method 1, Ki calculated from IC50 (Cheng-Prussoff). As to the method:
Cell pellets from CHO cells expressing the histamine H4 receptor were homogenised in ice-cold 50 mM Tris-HCl/0.5 mM CaCl2 buffer containing a protease inhibitor cocktail (Roche®, United Kingdom) using a ground glass homogeniser. Homogenates were centrifuged at 48000 g for 30 min at 4° C. The membrane pellet was resuspended in fresh buffer and the centrifugation step was repeated as described above. The membrane pellet was resuspended in 50 mM Tris-HCl in the same volume as the original cell pellet. Aliquots of membrane preparations were stored at −80° C. and were used for [^3H]-Histamine binding experiments.
Cell membranes (20-35 μg/well) were incubated for 90 minutes shaking at room temperature with 3 nM [2,5-^3H]Histamine dihydrochloride (30-60 Ci/mmol) in 50 mM Tris-HCl (pH 7.4), with or without competing H4 ligands. The reaction was terminated by rapid filtration through 0.5% polyethylenimine-soaked Unifilter GF/B plates (Packard) followed by three washes with 1 ml ice-cold 50 mM Tris-HCl. Filters were dried for 45 min at 45° C. and bound radiolabel was determined using scintillation counting techniques. Non-specific binding was defined with 10 μM JNJ7777120.

T1 sequence (Q9H3N8 whole entry): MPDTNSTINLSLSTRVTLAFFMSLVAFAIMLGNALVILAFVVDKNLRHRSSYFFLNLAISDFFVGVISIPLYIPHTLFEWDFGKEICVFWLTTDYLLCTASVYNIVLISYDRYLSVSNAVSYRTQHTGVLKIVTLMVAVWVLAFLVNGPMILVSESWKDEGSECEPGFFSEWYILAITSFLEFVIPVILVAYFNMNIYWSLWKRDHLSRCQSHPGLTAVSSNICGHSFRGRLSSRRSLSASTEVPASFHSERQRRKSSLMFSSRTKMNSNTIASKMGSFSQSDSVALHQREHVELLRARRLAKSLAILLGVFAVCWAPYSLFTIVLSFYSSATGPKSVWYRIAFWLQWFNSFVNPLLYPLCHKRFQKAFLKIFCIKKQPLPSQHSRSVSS

`CCCNc1cc(N2CC[C@@H](NC)C2)nc(N)n1` [Example 180, 6-[(3R)-3-(Methylamino)pyrrolidin-1-yl]-N^4-propylpyrimidine-2,4-diamine]: the Ki is 17.4 nM.
On the same count and under the same terms, the result for `CN[C@@H]1CCN(c2cc(NC3CCC3)ncn2)C1` [Example 181, N-Cyclobutyl-6-[(3R)-3-(methylamino)pyrrolidin-1-yl]pyrimidin-4-amine] reads 17.6 nM; that for `CNC1CN(c2cc(NCCOC)nc(N)n2)C1` [Example 182, N^4-(2-Methoxyethyl)-6-[3-(methylamino)azetidin-1-yl]pyrimidine-2,4-diamine], 19.8 nM.
The same measure, in the same setting: the result for `CN[C@@H]1CCN(c2cc(NCC(C)(C)C)ncn2)C1` [Example 183, N-(2,2-Dimethylpropyl)-6-[(3R)-3-(methylamino)pyrrolidin-1-yl]pyrimidin-4-amine] reads 20 nM; that for `C[C@H]1CN(c2cc(NCC3CC3)nc(N)n2)CCN1` [Example 184, N^4-(Cyclopropylmethyl)-6-[(3S)-3-methylpiperazin-1-yl]pyrimidine-2,4-diamine], 20.4 nM.
For `CCNc1cc(N2CCCN(C)CC2)nc(N)n1` [Example 185, N^4-Ethyl-6-(4-methyl-1,4-diazepan-1-yl)pyrimidine-2,4-diamine], the inhibitory constant (Ki) is 20.5 nM.
Consider `CNC1(C)CN(c2cc(NCC(C)(C)C)nc(N)n2)C1` [Example 186, N^4-(2,2-Dimethylpropyl)-6-[3-methyl-3-(methylamino)azetidin-1-yl]pyrimidine-2,4-diamine], for which the Ki was 22.2 nM.
On the same count and under the same terms, the result for `CC(C)Nc1cc(N2CCNCC2)nc(N)n1` [Example 187, N^4-Isopropyl-6-piperazin-1-ylpyrimidine-2,4-diamine] reads 22.4 nM; that for `CNC1CN(c2cc(NC3CC3)ncn2)C1` [Example 189, N-Cyclopropyl-6-[3-(methylamino)azetidin-1-yl]pyrimidin-4-amine], 25.8 nM.
On the same count and under the same terms, the result for `CC(C)(C)CNc1cc(N2CC(N)C2)nc(N)n1` [Example 190, 6-(3-Aminoazetidin-1-yl)-N^4-(2,2-dimethylpropyl)pyrimidine-2,4-diamine] reads 27.7 nM.
On the same count and under the same terms, the result for `CN1C[C@@H]2C[C@H]1CN2c1cc(NCC(C)(C)C)nc(N)n1` [Example 191, N^4-(2,2-Dimethylpropyl)-6-[(1S,4S)-5-methyl-2,5-diazabicyclo[2.2.1]hept-2-yl]pyrimidine-2,4-diamine] reads 28.2 nM; that for `CC(C)(C)CNc1cc(N2CC(N3CCCC3)C2)ncn1` [Example 192, N-(2,2-Dimethylpropyl)-6-(3-pyrrolidin-1-ylazetidin-1-yl)pyrimidin-4-amine], 28.7 nM; that for `CN(C)CCNc1cc(NCC2CC2)ncn1` [Example 194, N-(Cyclopropylmethyl)-N′-[2-(dimethylamino)ethyl]pyrimidine4,6-diamine], 32.4 nM.
Take `CCC(C)CNc1cc(N2CC[C@@H](N)C2)nc(N)n1` (stereo partly drawn) [Example 195, 6-[(3R)-3-Aminopyrrolidin-1-yl]-N^4-(2-methylbutyl)pyrimidine-2,4-diamine]: the Ki was 32.6 nM.
Same read-out and setting: the result for `CNC1(C)CN(c2cc(NCC3CC3)nc(N)n2)C1` [Example 196, N^4-(Cyclopropylmethyl)-6-[3-methyl-3-(methylamino)azetidin-1-yl]pyrimidine-2,4-diamine] reads 33.1 nM; that for `CCNc1cc(N2CC(N3CCCC3)C2)nc(N)n1` [Example 197, N^4-Ethyl-6-(3-pyrrolidin-1-ylazetidin-1-yl)pyrimidine-2,4-diamine], 33.2 nM; that for `CC(C)Nc1cc(N2CCCN(C)CC2)nc(N)n1` [Example 198, N^4-isoPropyl-6-(4-methyl-1,4-diazepan-1-yl)pyrimidine-2,4-diamine], 33.6 nM.
The same measure, in the same setting: the result for `CN[C@@H]1CCN(c2cc(NC3CCC3)nc(N)n2)C1` [Example 199, N^4-Cyclobutyl-6-[(3R)-3-(methylamino)pyrrolidin-1-yl]pyrimidine-2,4-diamine] reads 33.9 nM; that for `CC(C)(C)CNc1cc(N2CCC(N)CC2)nc(N)n1` [Example 201, 6-(4-Aminopiperidin-1-yl)-N^4-(2,2-dimethylpropyl)pyrimidine-2,4-diamine], 35 nM.
Regarding `CN[C@@H]1CCN(c2cc(NC(C)C)ncn2)C1` [Example 202, N-Isopropyl-6-[(3R)-3-(methylamino)pyrrolidin-1-yl]pyrimidin-4-amine], the Ki is 36.5 nM.
Still for that read-out and setting: the result for `CN[C@@H]1CCN(c2cc(NC3CC3)ncn2)C1` [Example 203, N-Cyclopropyl-6-[(3R)-3-(methylamino)pyrrolidin-1-yl]pyrimidin-4-amine] reads 37.9 nM; that for `CN[C@H]1CCN(c2cc(NCC3CC3)nc(N)n2)C1` [Example 204, N^4-(Cyclopropylmethyl)-6-[(3S)-3-(methylamino)pyrrolidin-1-yl]pyrimidine-2,4-diamine], 39 nM.
The same measure, in the same setting: the result for `CCNc1cc(N2CC[C@H](NC)C2)nc(N)n1` [Example 205, N^4-Ethyl-6-[(3S)-3-(methylamino)pyrrolidin-1-yl]pyrimidine-2,4-diamine] reads 39.3 nM; that for `CCCNc1cc(N2CC(NC)C2)ncn1` [Example 206, 6-[3-(Methylamino)azetidin-1-yl]-N-propylpyrimidin-4-amine], 39.9 nM; that for `CN[C@H]1CCN(c2cc(NC(C)(C)C)nc(N)n2)C1` [Example 207, N^4-(tert-Butyl)-6-[(3S)-3-(methylamino)pyrrolidin-1-yl]pyrimidine-2,4-diamine], 43.3 nM.
Still for that read-out and setting: the result for `CNc1cc(N2CCNCC2)nc(N)n1` [Example 208, N^4-Methyl-6-piperazin-1-ylpyrimidine-2,4-diamine] reads 45.1 nM.
With `CNCC1CN(c2cc(NCC(C)(C)C)nc(N)n2)C1` [Example 209, N^4-(2,2-Dimethylpropyl)-6-{3-[(methylamino)methyl]azetidin-1-yl}pyrimidine-2,4-diamine], the inhibitory constant (Ki) is 46.4 nM.
On the same count and under the same terms, the result for `Nc1nc(NCC2CC2)cc(N2C[C@@H]3CCCN[C@@H]3C2)n1` [Example 210, N^4-(Cyclopropylmethyl)-6-[(4aS,7aS)-octahydro-6H-pyrrolo[3,4-b]pyridin-6-yl]pyrimidine-2,4-diamine] reads 48.9 nM; that for `CN[C@H]1CCN(c2cc(NCCC(C)(C)C)nc(N)n2)C1` [Example 211, N^4-(3,3-Dimethylbutyl)-6-[(3S)-3-(methylamino)pyrrolidin-1-yl]pyrimidine-2,4-diamine], 49.3 nM.
Still for that read-out and setting: the result for `NCCNc1cc(NCC2CC2)nc(N)n1` [Example 212, N^4-(2-Aminoethyl)-N^6-(cyclopropylmethyl)pyrimidine-2,4,6-triamine] reads 50 nM.
Same read-out and setting: the result for `C[C@H]1CN(c2cc(NCc3ccccc3F)nc(N)n2)CCN1` [Example 213, N^4-(2-Fluorobenzyl)-6-[(3S)-3-methylpiperazin-1-yl]pyrimidine-2,4-diamine] reads 52.9 nM; that for `CCNc1cc(N2CCNCC2)nc(N)n1` [Example 214, N^4-Ethyl-6-piperazin-1-ylpyrimidine-2,4-diamine], 54.4 nM.
Regarding `Nc1nc(NCC2CC2)cc(N2CC[C@@H](N)C2)n1` [Example 215, 6-[(3R)-3-Aminopyrrolidin-1-yl]-N^4-(cyclopropylmethyl)pyrimidine-2,4-diamine], the inhibitory constant (Ki) was 57.3 nM.
The same measure, in the same setting: the result for `CC(C)CNc1cc(N2CC[C@@H](N)C2)nc(N)n1` [Example 216, 6-[(3R)-3-Aminopyrrolidin-1-yl]-N^4-isobutylpyrimidine-2,4-diamine] reads 70.6 nM; that for `CC(C)CNc1cc(N2C[C@H]3CNC[C@H]3C2)nc(N)n1` [Example 217, 6-[(3aR*,6aS*)-Hexahydropyrrolo[3,4-c]pyrrol-2(1H)-yl]-N^4-isobutylpyrimidine-2,4-diamine], 80.6 nM.
On the same count and under the same terms, the result for `Nc1nc(NCC2CCCC2)cc(N2CC[C@@H](N)C2)n1` [Example 218, 6-[(3R)-3-Aminopyrrolidin-1-yl]-N^4-(cyclopentylmethyl)pyrimidine-2,4-diamine] reads 80.7 nM; that for `CCCNc1cc(N2CC[C@@H](N)C2)nc(N)n1` [Example 219, 6-[(3R)-3-Aminopyrrolidin-1-yl]-N^4-propylpyrimidine-2,4-diamine], 82.3 nM.
Same read-out and setting: the result for `NCCNc1cc(NCC2CC2)ncn1` [Example 220, N-(2-Aminoethyl)-N′-(cyclopropylmethyl)pyrimidine-4,6-diamine] reads 88 nM; that for `CNc1cc(N2CC[C@@H](NC)C2)nc(N)n1` [Example 221, N^4-Methyl-6-[(3R)-3-(methylamino)pyrrolidin-1-yl]pyrimidine-2,4-diamine], 90.3 nM; that for `CC(C)(C)CNc1cc(NC2C3CNCC32)nc(N)n1` (stereo not drawn) [Example 222, N^4-[(1R*,5S*,6s*)-3-Azabicyclo[3.1.0]hex-6-yl]-N^6-(2,2-dimethylpropyl)pyrimidine-2,4,6-triamine], 95.2 nM.
In the case of `CN1CCN(c2cc(NC(C)(C)C)nc(N)n2)CC1` [Example 223, N^4-(tert-Butyl)-6-(4-methylpiperazin-1-yl)pyrimidine-2,4-diamine], the inhibition at 10 µM (1.5 h) came out at 13%.
Turning to `CN1CCCN(c2cc(NC3CC3)ncn2)CC1` [Example 224, N-Cyclopropyl-6-(4-methyl-1,4-diazepan-1-yl)pyrimidin-4-amine], the Ki was 101 nM.
Same read-out and setting: the result for `CC(C)(C)CCNc1cc(N2CC[C@@H](N)C2)nc(N)n1` [Example 225, 6-[(3R)-3-Aminopyrrolidin-1-yl]-N^4-(3,3-dimethylbutyl)pyrimidine-2,4-diamine] reads 102 nM.
